Reference: patent US10028992B2, “Methods of treating muscular dystrophy” (BOARD OF REGENTS OF THE NEVADA SYSTEM OF HIGHER EDUCATION …, priority 2012, dated 2018)

Test system: α7 integrin promoter
Experiment: muscle cell-based assay: α7βgal+/− myoblasts/myotubes, LacZ reporter, β-galactosidase cleavage of FDG
Set-up: species or system mouse
Details: for AC50 / EC50: Mus musculus; for AC50 / Fit Log AC50: log of AC50, given with negative sign, unit of AC50 not given; for AC50: read-out: Fit Log AC50 (converted); for Fit Curve Class: key not given; for Fit Infinite Activity [%]: fitted activity at infinite concentration; for EC50: given as log AC50 (negative values), read-out: Fit LogAC50 (converted)
Protocol: An α7 integrin null mouse was produced in which exon 1 of the gene encoding the α7 integrin was replaced by the LacZ reporter. In these mice, all the transcriptional regulatory elements of the α7 integrin promoter were retained, allowing β-galactosidase to report expression of 7 integrin. A primary myoblast cell line (designated α7βgal^+/−) isolated from 10 day old α7^+/− pups were analyzed for the ability of β-galactosidase to report α7 integrin expression. α7βgal^+/− myoblasts were differentiated and subjected to X-gal staining and western analysis (FIGS. 1A and 1B).
The activity of the α7 integrin promoter was measured by β-galactosidase cleavage of the non-fluorescent compound fluorescein di-β-D-galactopyranoside (FDG) to fluorescein. This assay was used to screen compound libraries to identify molecules that up-regulate α7 integrin expression in muscle.
Also evaluated was the effect of various isoforms of laminin and the ligand for α7β1 integrin on integrin expression. Positive hits were subjected to dose-response analysis, western analysis and a myostatin counterscreen (a negative regulator of muscle growth).

[1] = Table 12, fitted activity at zero concentration
[2] = Table 12 Compound data, concentration-response curve fit
[3] = curve fit, activity at zero concentration

Structure (SMILES)	AC50 (Table 12) [µM]	Fit HillSlope (Table 12, curve fit)	Fit Zero Activity [%] [1] [%]	Fit Curve Class (Table 12)	Score [2]	Fit Infinite Activity [%] (Table 12)	Fit Log AC50 (Table 12)	EC50 [µM]	Score (Table 12 compound data)	Fit Curve Class (curve class number)	Fit HillSlope (curve fit)	Fit Zero Activity [%] [3] [%]
O=C(COc1cc2oc(=O)c3c(c2cc1Cl)CCCC3)NC[C@H]1CC[C@H](C(=O)O)CC1 [Compound 95]	7.08	1.01	−14.8966	2.2	43							
COCCn1c(=N)c(S(=O)(=O)c2ccc(Br)cc2)cc2c(=O)n3ccccc3nc21 [Compound 96]	4.47	1.9887	−8.0822	2.2	43							
CN(Cc1c(C(=O)N/N=C/c2cccc(F)c2)nnn1-c1nonc1N)c1ccccc1 [Compound 97]	5.62	3.132	1.2108	2.2	43							
COc1ccc(N(CC(=O)NCCC(C)C)C(=O)c2snc(C(=O)NC3CCCCC3)c2N)c(OC)c1 [Compound 98]	10	4.5045	−0.0479	2.1	43							
CC1(C)CC(O)=C/C(=N\c2ccc(C(=O)O)c(O)c2)C1 [Compound 99]	10	2.1211	0	2.1	43							
COC(=O)c1ccccc1NC(=O)c1cc[n+]([O-])cc1 [Compound 100]	3.98	1.01	−31.5116	2.1	43							
CN(C)C1(C/N=C/c2cc(Cl)cc([N+](=O)[O-])c2O)CCCCC1 [Compound 101]		1.6604	−15.8708	2.1	43	115.659	−5.05					
CS(=O)(=O)Cc1cccc(C(=O)NN(c2ccccc2)c2ccccc2)c1 [Compound 102]	12.6	4.5045	10.4042	2.1	43							
COc1ccccc1CNS(=O)(=O)c1ccc(Cl)s1 [Compound 103]	6.31	1.8265	−23.0045	2.1	43							
O=C(NCCc1ccccc1)C1CCC(=O)N1C1CCCC1 (stereo not drawn) [Compound 104]	10	3.6772	−9.1182	2.1	43							
NS(=O)(=O)c1ccc(NC(=O)c2cc(-c3ccccc3O)[nH]n2)cc1 [Compound 105]	10	3.5117	16.8467	2.1	43							
Fc1ccc(-c2ccnn2-c2ccccc2)cc1 [Compound 107]	4.47	1.4781	−19.2206	2.1	43							
O=C(Nc1cc(Br)ccc1O)C1CC(c2ccccc2Cl)=NO1 (stereo not drawn) [Compound 108]	12.6	4.5045	2.0834	2.1	43							
COc1ccc2oc(C[S+]([O-])c3ccccc3)c(C(=O)O)c2c1 (stereo not drawn) [Compound 109]	12.6	4.9549	7.5839	2.1	43							
CCCCS(=O)(=O)N1CCCC(C(=O)NCCc2ccccc2)C1 (stereo not drawn) [Compound 111]	7.08	1.21	2.2101	2.1	43							
O=[N+]([O-])c1ccc(Cl)cc1N/N=C/c1ccncc1 [Compound 112]		3.132	0.1229	2.2	43	74.0416	−5.25					
NC(=O)c1cccnc1Oc1ccc(Cl)cc1Cl [Compound 113]	10	3.9295	−5.8907	2.1	43							
Cc1ccc(NC(=O)C2CCCCC2C(=O)O)cc1C (stereo not drawn) [Compound 114]	11.2	4.5045	−3.8223	2.1	43							
CCOc1ccc2oc(C(=O)OCC(=O)NC(=O)NC)c(C)c2c1 [Compound 115]	7.08	1.8265	−4.8829	2.2	43							
CN(C)S(=O)(=O)c1ccc(C(=O)Nc2nc3ccccc3[nH]2)cc1 [Compound 116]	8.91	1.5579	−9.8246	2.1	43							
NC1=Nc2cccc3cccc1c23 [Compound 117]	7.94	1.6604	−0.2202	2.1	43							
C/N=c1\scc(-c2ccc(OC)cc2)n1/N=C(\C)c1cccnc1 [Compound 118]	5.01	1.6924	−7.9176	2.2	43							
O=C(COC(=O)Cn1cnc2ccccc21)Nc1cccc([N+](=O)[O-])c1 [Compound 119]	11.2	4.9549	−16.0213	2.1	43							
Cc1ccc(CNc2ncnc(N)c2[N+](=O)[O-])cc1 [Compound 120]	10	0.8	11.933	2.1	43							
CN(C)/C=N/c1nccc(-c2cccs2)n1 [Compound 121]	8.91	1.8851	5.7133	2.1	43							
Cc1cc(N2CCOCC2)nc2ccc(N/C(S)=N/Cc3ccc4c(c3)OCO4)cc12 [Compound 122]	10	1.2475	0.5248	2.1	43							
COCCN1C=C(C(=O)OC)C(c2ccccc2Cl)C(C(=O)OC)=C1 [Compound 123]								8.91	43	2.1	1.3443	3.9836
O=C(NCCCn1ccnc1)/C(=C/c1cccs1)NC(=O)c1ccco1 [Compound 124]								8.91	43	2.1	1.2475	−20.4393
N=C(NOC(=O)COc1cc(Cl)c(Cl)cc1Cl)c1ccncc1 [Compound 125]								11.2	43	2.1	1.1705	−2.6906
